Experimental findings from US11931322B2, “Solubilizate with curcumin and optionally at least one other active substance” (priority 2017, dated 2024) are described below.

Holding throughout (type): in vivo, Wistar rats
Assay [1] has as its system thiobarbituric acid reactive substances (TBARS). The assay is described as follows: Thiobarbituric acid reactive substances (TBARS) in the serum of arthritic rats. The conditions noted are these: for TBARS: serum of arthritic rats, n=8, mean ± SEM. Here is the method:
(§1) Prof. Dr. […] from the University of Cairo, Faculty of Pharmacy at the Institute for Pharmacology, performed studies on the anti-inflammatory effect of curcumin and combinations of curcumin with Boswellia or xanthohumol, in each case in the native form and in the solubilized form according to the disclosure. Anti-inflammatory markers and antioxidant capacity were determined. Female Wistar rats with a body weight between 150 and 200 g were exposed to adjuvant induced arthritis according to Pearson et al. (1956). At day 0, the animals were administered 0.1 ml of Freund's Adjuvant (FCA) in the right hind paw, by subplantar injection. The animals were randomly divided into 12 groups of 8 animals each. All extracts or solubilizates were administered orally once daily from day 0 to day 21 following the vaccination with the adjuvant. After day 21, the animals were killed and serum samples were prepared and stored at -80° C. Measurements were made of myeloperoxidase (MPO), C-reactive protein (CRP), total antioxidant capacity (TAC), and thiobarbituratic acid reactive substances (TBARS). Oxidative stress is one of the major factors contributing to joint destruction in rheumatoid arthritis (RA). An increase in the production of so-called “reactive oxygen species (ROS)” leads to a reduced supply of endogenous antioxidants and ultimately results in the destruction of cells. The neutrophil granulocytes released in the rheumatoid joint produce free oxygen radicals which cause increased formation of lipid peroxides manifesting in an increase in serum TBARS. Therefore, an increase in antioxidant status represented by an increase in TAC can be used as an indication of protection against the development of degenerative inflammatory processes. There is an inverse relationship between the levels of TAC and TBARS, a high level of antioxidant capacity TAC corresponds to a low TBARS concentration. The table contains data on the effect of curcumin and Boswellia in native and in solubilized form, administered either alone or in combination with diclofenac in a dose of 3 mg per kg body weight once daily for 21 days, on the antioxidant capacity TAC and the thiobarbituric acid reactive substances TBARS in the serum of arthritic rats (n=8). Indicated are mean values±standard error of the mean (SEM).

In assay [2] the test system is total antioxidant capacity (TAC). As to the kind of experiment: Total antioxidant capacity (TAC) in the serum of arthritic rats. The conditions noted are these: for TAC: serum of arthritic rats, n=8, mean ± SEM. How it is done:
as §1

The subject of another assay is C-reactive protein (CRP). As to the kind of experiment: Serum C-reactive protein (CRP) in adjuvant-induced arthritic rats. The conditions noted are these: 5 and 10 mg/kg, FIG. 1a. Here is the method: (§2) Prof. Dr. […] from the University of Cairo, Faculty of Pharmacy at the Institute for Pharmacology, performed studies on the anti-inflammatory effect of curcumin and combinations of curcumin with Boswellia or xanthohumol, in each case in the native form and in the solubilized form according to the disclosure. Anti-inflammatory markers and antioxidant capacity were determined. Female Wistar rats with a body weight between 150 and 200 g were exposed to adjuvant induced arthritis according to Pearson et al. (1956). At day 0, the animals were administered 0.1 ml of Freund's Adjuvant (FCA) in the right hind paw, by subplantar injection. The animals were randomly divided into 12 groups of 8 animals each. Group 1 was the control group. Group 2 received diclofenac as a reference drug in a dose of 3 mg/kg body weight. Group 3 received native curcumin in a dose of 5 mg/kg body weight. Group 4 received curcumin solubilized according to the disclosure in a dose of 5 mg/kg body weight. Group 5 received native curcumin in a dose of 10 mg/kg body weight, and Group 6 received curcumin solubilized in the same dose. Group 7 received native xanthohumol in a dose of 5 mg/kg body weight, and Group 8 received solubilized xanthohumol in the same dose. Group 9 received a mixture of native curcumin in a dose of 5 mg/kg body weight and native Boswellia extract in a dose of 10 mg/kg body weight. […]

The next assay concerns myeloperoxidase (MPO). As to the kind of experiment: Serum myeloperoxidase (MPO) in adjuvant-induced arthritic rats. The conditions noted are these: both dosages (5 and 10 mg/kg), FIG. 2. Here is the method:
as §2

Where [3] appears, read: 10 mg/kg once daily for 21 days.
The mark [4] stands for this setting: arthritic rats, both dosages considered.

Consider `O=C(O)Cc1ccccc1Nc1c(Cl)cccc1Cl` [Diclofenac, diclofenac], for which the TBARS in assay [1] (3 mg/kg once daily for 21 days) is given as 7.93 ± 0.84 nmol/L. The TAC in assay [2] (3 mg/kg once daily for 21 days) was found to be 82.08 ± 2.96 nmol/µL.

Take `COc1cc(/C=C/C(=O)CC(=O)/C=C/c2ccc(O)c(OC)c2)ccc1O` [Native curcumin, curcumin]: the TBARS in assay [1] (5 mg/kg once daily for 21 days) is recorded as 11.64 ± 0.39 nmol/L; in assay [1] (setting [3]), 13.18 ± 0.46 nmol/L. The “effect on the TBARS level (in words)” value in assay [1] (setting [4]) is “no significant effect”. Also, the “effect on rat serum CRP levels (in words)” value with C-reactive protein (CRP) is on record as “inhibited rat serum CRP levels in a dose-dependent manner”. For the same compound, the “effect on MPO concentration (in words)” value with myeloperoxidase (MPO) is reported as “no effect on the MPO levels”. In addition, the TAC in assay [2] (5 mg/kg once daily for 21 days) stood at 60.31 ± 3.25 nmol/µL; in assay [2] (setting [3]) it was 68.41 ± 1.09 nmol/µL. Also, the “effect on TAC (in words)” value in assay [2] (setting [4]) is on record as “no significant effect”.
